System: burning sensation in the mouth produced by use of LISTERINE mouthwash
Assay: Reduction of perceived burning sensation after rinsing with LISTERINE mouthwash with or without sophorolipid (six subjects)
Format: in vivo, human
Details: five of six subjects; treated mouthwash (sophorolipid added) vs control mouthwash with no sophorolipid; rinse held in mouth 10-60 seconds before spitting; self-reported
Protocol: FIG. 1 is a graph that illustrates that a sophorolipid, having an oleic acid fatty acid tail, when added to mouthwash blocks or inhibits the burning sensation taste produced by use of LISTERINE® mouthwash. As discussed in Example 1 below, six subjects were instructed to rinse their mouths with either control (mouthwash with no sophorolipid) or the treated mouthwash (with 10 μM to 100 μM of the sophorolipid). Subjects reported the results as perceived burning sensation. Five of six subjects reported reductions of at least 50% in perceived burn produced by use of the treated mouthwash vs. use of the control.
Six subjects were involved in the study.
A final concentration of […] of the above noted sophorolipid was added to the mouthwash. The mouthwash with no sophorolipid added was the control. The subjects were told to rinse their mouths with either control or the treated mouthwash and hold it in their mouths for 10-60 seconds before spitting. Subjects were told to report the results as perceived burning sensation.
As reported in the graph of FIG. 1, five of six subjects reported reductions of at least 50% in perceived burn produced by use of the […].

sophorolipid was tested, and the “reduction in perceived burn” value was “at least 50%”.
